Source: patent publication US12667584B2, “Adenosine analog and its use in regulating the circadian clock” (NATIONAL INSTITUTE OF BIOLOGICAL SCIENCES, BEIJING, priority 2017, dated 2026)
Like-named read-outs stand apart in the source and are kept apart here.

What was measured:
[1] = system: Per2:luc U2OS cells; experiment: Real-time monitoring of circadian oscillation in lumicycle, Per2:luc U2OS cells; format: cell-based, human; conditions: for effect on the clock phase: in words
Protocol: Cell culture, drug treatment and Real-Time Monitoring of Circadian Oscillations: Per2-Luc reporter U2OS cells (D15) and Bmal1-Luc reporter U2OS cells (C26) cells were kept in DMEM medium (Gibco), supplemented with 10% FBS (Gibco) and 1% penicillin streptomycin mixture (Gibco). For Circadian Oscillation monitored with lumicycle (Actimetrics), cells were seeded at the density of 10^6 per 3.5 cm dish (Z688851-30EA). The medium was changed into XM medium (PH7.2, 10 mM HEPES, 350 mg/I bicarbonate, 1×B27, 100 IU/ml penicillin, 100 μg/ml streptomycin, 10 μg/ml gentamycin, and 100 μM d-Luciferin) 2 days after cell seeding. 3.5 cm dish was then sealed with high-vacuum grease (Dow Corning) and microscope cover glass, and transferred into lumicycle which was placed in an incubator (37° C.). For Drug treatment, 3.5 cm dish was taken out from lumicycle quickly at indicated time. After chemical was added into the medium, the dish was sealed again and put back into lumicycle. For Circadian Oscillation monitored with Tecan (Perkinelmer), cells were seeded at the density of […] per well for 384-well plate (CLS3610-48EA). 2 days later, the medium was changed into premixed XM medium with different chemicals with or without pentostatin (5 μg/ml). The plate was then sealing with sealing film (Sangon Biotech) and put into Tecan. Data from cells were collected in the Tecan luminometer at 37° C. for 5˜7 days.
The inventors conducted a chemical screen using the human osteosarcoma U2OS cell line so as to discover small molecules that modify the phase of the intracellular clock in mammals. In the primary screen, the inventors used two reporter lines of U2OS harboring a luciferase gene under control of either Per2 or Bmal1 promoter (named Per2-dLuc or Bmal1-dLuc cells), and set the threshold for at least 6 h phase-changes with no apparent amplitude-reduction in both cell lines. […] An institutional pilot chemical library consisting of approximately 10,000 small molecules was applied in this study. […] The inventors set to allow a free-run of the clock before administration of the compound over the course in order to eliminate the possibility that this phase-changing phenomenon was due to a combinative phenotype of medium-change plus the compound effect.
Circadian clock is a transcriptional based feedback loop, however different clock genes contain different cis-element and may show different response to the same stimulation. […] Since the close similar structure with adenosine and potential function of inhibiting transcription by preventing mRNA elongation, we tested whether adenosine and other deoxynucleoside could shift circadian phase. […] Therefore we further tested whether cordycepin utilize adenosine transporter to enter cell or utilize adenosine deaminase to degrade.
One prominent character of zeitgeiber is phase dependent function. Therefore, we further tested whether cordycepin also has the character.

[2] = system: PER2 locus; experiment: ChIP-qPCR analysis for the PER2 locus; format: cell-based
Protocol: Human and mouse circadian oscillators are driven by interlocked transcriptional and translational feedback loop. Bmal1 and Clock are transcriptional factors and function as positive arm to active negative arm genes transcription, including Per and Cry. Per and Cry are transcriptional repressor and feedback repress Bmal1/Clock's transcription activity thereby inhibit its own transcription. […] We also confirmed this by ChIP-qPCR experiments. Cordycepin treatment 30 min immediately release Cry1/2 and Ruvbl2 binding at Per2 gene promoter.

[3] = system: E-box genes; experiment: Nascent pre-mRNA sequencing (nascent-seq) of U2OS cells; format: cell-based, human
Source text: Manipulating DRB's well characterized target CDK9 protein with AID degron mimics the phase shift curve of DRB in Per2-dLuc cells. […] Using nascent seq experiment, we found DRB treatment repress majority genes expression, but exclusively activates E-box containing gene both in vitro (FIG. 4).
(red color). […] Thus, perhaps the partial inhibition of CDK9 stimulates, rather than represses, the transcription of E-box genes. Right napel is UCSC genome browser views of E-box containing (NR1D1 and DBP) or non-E-box containing (BMAL1 and CRY1) clock genes

[4] = system: kidney clocks; experiment: Phase shift of kidney clock; format: cell-based
[5] = system: SCN culture slice; experiment: Ex vivo SCN slice culture from Per2::LUC mice, lumicycle; format: cell-based, mouse
Source text: Tissue culture, drug treatment and Real-Time Monitoring of Circadian Oscillations: 8 week-old male mPer2 Luciferase knockin mice were Sacrificed cervical dislocation. Then wipe the skin and neck with cotton containing 70% ethanol in a sterile hood. For SCN slice culture, firstly remove the eye balls from the head with scissors, decapitate and cut the skin. Then open the skull, remove all bone until the olfactory bulbs can be seen, cut the optic nerve between the olfactory bulbs and the hemispheres, and finally harvest the whole brain into ice cold HBSS. Trim the brain in HBSS by removing the cerebellum and olfactory bulbs. Attach the brain to a sample tray by glue with the rostral tip upwards and ventral surface closest to the cutting blade, then immediately fill the tray with ice cold HBSS and set the tray to the vibratome. Set the vibratome frequency at the maximum and the speed to the medium. To reach the SCN area quickly, the start cutting off thicker sections should be 500-800 μm. Reduce the sections thicker to 100 μm when the optic chiasm becomes wider. When the two SCN nuclei start to appear, collect the slice with transfer pipettes and check slices under dissecting microscope. […] Data was extract and analyzed with LumiCycle Analysis software. […]

[6] = system: C57BL/6j mice; experiment: Wheel running jet-lag experiment, 8 h phase advance or delay; format: in vivo, mouse; conditions: for With Pentostadin Cell Assay: Dose effect: 15 mg/kg
Protocol: Wheel running experiment: Male C57Bj/6 mice at 7 w old were purchased from the Nanjing Biomedical Research Institute of Nanjing University introduced from Jackson Laboratory, housed in individually wheel-running cage in a temperature- and humidity-controlled SPF facility, with ad libitum access to food and water. The animals were entrained under 12 h light/dark photoperiod for two weeks to synchronize the endogenous circadian clock of the mice to the ambient light-dark cycle, light intensity is about 50˜100 lux. After synchronization, light-dark cycles were 8-hr phase-advanced or phase-delayed. On the day of light-dark cycle was shifted advance, mice were firstly fasted at CT 3, then 15 mg/kg bw CA03, 15 and 30 mg/kg bw pro-CA03, 15 and 30 mg/kg bw pro-CA04 or DMSO were intraperitoneal injection at CT 12, and light on time (CT 0) was shifted from 7 am to 11 pm), finally re-feed and inject drug again at CT 23 of the old light-dark cycle. CA03 and pro-CA04 were firstly dissolved in DMSO to the concentration of 200 μg/μl, then dilute with saline to the final concentration of 1000 μg/ml for intraperitoneal injection. Pro-03 was firstly dissolved in DMSO to the concentration of 200 μg/μl, then dilute with 2% tween80 (in sterilized water) to the final concentration of 1000 μg/ml for intraperitoneal injection. On the day of light-dark cycle was shifted delayed, mice were firstly fasted at ZT 3, then 15 mg/kg bw CA03, 15 and 30 mg/kg bw pro-CA03, 15 and 30 mg/kg bw pro-CA04 or DMSO were intraperitoneal injection at CT 12, and light off time (CT12) was shifted from […] to 3 am), finally re-feed and inject drug again at CT 23 of the old light-dark cycle. Locomotor activity was recorded in 10-min bins wheel running (Actimetrics), and the data obtained were analysed with Clocklab software (Actimetrics). All animal experimental procedures were performed in accordance with the protocol approved by the Institutional Animal Care and Usage Committee (IACUC) of the National Institute of Biological Sciences, Beijing.
Under a standard jet-lag protocol {Yamaguchi, 2013}, wild-type C57BL/6j mice usually take ˜10 d to adapt to 8 h phase advance. […] Similarly, the drug treated mice adapt faster to the phase delay (FIG. 2D&2E).
To test whether cordycepin function in vivo, we firstly tested luciferase signal level by live imaging of Per2:LUC mice after intraperitoneal injection of 15 mg/kg cordycepin or DMSO. We found cordycepin induce more than 4 folds increase of luciferase signal in liver when compared with DMSO control (A). […] We also reconfirmed endogenous transcription rate of core clock genes by measuring the pre-mRNA with qPCR in the liver (B). We examined RRE genes (including Bmal1, Clock, Npas2, Cry1 and Nfil3), internal control genes (including Gapdh, Tbp and Actin) and E-box genes (including Per1, Per2, Dbp and Nr1d1). We designed at least 2 primers for each gene. […] Prior evaluation the jet-leg cure ability of cordycepin, we detected whether cordycepin and it's prodrug pro-CA03 can penetrate BBB. We injected cordycepin or pro-CA03 via tail vein and time course sampled CSF and analyzed cordycepin pro-CA03 level with HPLC-MASS method. […] Finally we evaluated the jet-leg cure ability of cordycepin, pro-CA03 and Pro-CA04 with mice behavioral experiment. Wild-type C57BL/6j mice typically take ˜10 days to adapt to an 8 h phase advance. […]

[7] = system: Per2-Luc reporter U2OS cells (D15); experiment: Circadian phase shift cell assay in D15 cells, 384 well plate, Tecan, with or without pentostatin; format: cell-based, human; conditions: for minimal effective concentration: Homo sapiens, U2OS, read-out: Cell Assay; for With Pentostadin Cell Assay: pentostatin 5 μg/ml
[8] = without pentostatin, concentration that shifts the circadian phase
[9] = concentration that shifts the circadian phase

For `Nc1ncnc2c1ncn2[C@@H]1O[C@H](CO)[C@@H](O)[C@H]1O` [adenosine], the “effect on phase effect induced by cordycepin” value ([1]; excessive amount) was “inhibits the phase effect induced by cordycepin” and the “effect on the clock phase” value [1] was “not”.
With `OC[C@H]1O[C@@H](n2cnc3cc(Cl)c(Cl)cc32)[C@H](O)[C@@H]1O` [DRB, 5,6-dichloro-1-β-D-ribobenzimidazole] the “binding of BMAL1 at PER2 locus” value [2] was “remained unchanged”, the “binding of CRY2/RUVBL2 at PER2 locus” value [2] was “released” and the “nascent transcription of E-box genes” value ([3]; 1, 2, 4 h post administration) was “all up-regulated”. The “newly synthesized mRNA of the majority of genes” value ([3]; within the first hour) was “reduced”, the “clock phase of kidney” value [4] was “shift the phase” and the “clock phase of SCN slice” value [5] was “shift the phase”.
In the case of `Nc1ncnc2c1ccn2[C@@H]1O[C@H](CO)[C@@H](O)[C@H]1O` [7-deazaadenosine, tubercidin], the “effect on the clock phase” value [1] is reported as “can shift circadian phase”.
In the case of `CCCCCCCC(=O)Nc1ncnc2c1ncn2[C@@H]1O[C@H](CO)C[C@H]1O`, the “With Pentostadin Cell Assay: Dose effect” value [6] is reported as “Dose effect (15 mg/kg)”.
In the case of `CCCCCCCC(=O)Nc1ncnc2c1ncn2[C@@H]1O[C@H](CO)[C@H](O)[C@H]1O` [Pro-CA04, N-octanoyl-9-(P-D-xylofuranosyl)-adenine], the “adaption time after 8 phase advance” value ([6]; DMSO 10 days) is reported as roughly 5 days.
`Nc1ncnc2c1ncn2[C@@H]1O[C@H](CO)[C@H](O)[C@H]1O` [(3′R)-adenosine, 3′-(R)-adenosine] was tested, and the “effect on the clock phase” value [1] was “can shift circadian phase”.
In the case of `OC[C@H]1O[C@@H](n2cnc3c2NC=NC[C@H]3O)C[C@@H]1O` [pentostatin], the “effect on the clock phase” value [1] is reported as “does not affect the clock phase” and the “effect on the clock phase” value ([1]; listed as Pentostatin) is reported as “does not affect the clock at all”.
In the case of `Nc1nccc2c1ncn2[C@@H]1O[C@H](CO)[C@@H](O)[C@H]1O` [3-deazaadenosine, 3-Deazaadenosine], the “effect on the clock phase” value [1] is reported as “can shift circadian phase”.
In the case of `Nc1ncnc2c1c(F)c(Br)n2[C@@H]1O[C@H](CO)[C@H](O)[C@H]1O`, the minimal effective concentration [7, 8] is reported as greater than 500 µM and the “With Pentostadin Cell Assay” value [7, 9] is reported as 100 µM.
In the case of `[2H]c1nc(N)c2nc([2H])n([C@@H]3O[C@H](CO)[C@H](O)[C@H]3O)c2n1` [drawing 353], the minimal effective concentration [7, 8] is reported as 12.5 µM and the “With Pentostadin Cell Assay” value [7, 9] is reported as 25 µM.
In the case of `CCCCCCCC(=O)Nc1ncnc2c1ncn2[C@@H]1O[C@H](CO)[C@H](O)[C@H]1O` [drawing 329], the “With Pentostadin Cell Assay: Dose effect” value [6] is reported as “Dose effect (15 mg/kg)”.
`Nc1nc(NC2CC2)c2ncn([C@H]3C=C[C@@H](CO)O3)c2n1` gave a minimal effective concentration [7, 8] of 400 µM.
With `Nc1ncnc2c1ncn2[C@@H]1O[C@H]([C@H](O)CO)[C@H](O)[C@H]1O` the minimal effective concentration [7, 8] was greater than 500 µM and the “With Pentostadin Cell Assay” value [7, 9] was 200 µM.
With `Nc1ncnc2c1ncn2[C@@H]1O[C@H](C2NN2)CC1O` (stereo partly drawn) the minimal effective concentration [7] was greater than 500 µM and the “With Pentostadin Cell Assay” value [7, 9] was 100 µM.
For `Nc1ncnc2c1ncn2[C@@H]1O[C@@H]2COC2[C@H]1O` (stereo partly drawn), the minimal effective concentration [7, 8] was greater than 500 µM and the “With Pentostadin Cell Assay” value [7, 9] was 100 µM.
In the case of `Nc1ncnc2c1ncn2[C@@H]1O[C@H](CO)CC1OC(=O)CCCC[C@@H]1SC[C@@H]2NC(=O)N[C@@H]21` (stereo partly drawn), the minimal effective concentration [7, 8] is reported as greater than 500 µM and the “With Pentostadin Cell Assay” value [7, 9] is reported as 1.5 µM.
In the case of `O=P(O)(O)OP(=O)(O)OP(=O)(O)OC[C@H]1O[C@@H](n2cnc3c(NCc4ccccc4)ncnc32)[C@H](O)[C@@H]1O`, the minimal effective concentration [7, 8] is reported as 10 µM.
